Measured values taken from US20050049278A1, “Benzo[1,3]dioxole compounds, pharmaceutical compositions thereof, and processes of making and using the same” (priority 2003, published 2005).
Where two headings read alike, the source gives them in different places.

Key:
[1] = system: OVCAR-4 (ovarian adenocarcinoma); test: Cell viability (cell proliferation assay), OVCAR-4; assay type: cell-based; conditions: Homo sapiens, 48 to 72 hr exposure
Description: (§1) HEK293 cells were seeded into each well of a 96-well plate (5000 cells/well) and incubated overnight to allow the cells to attach. The culture media was removed and replaced with 100 μl of phenol red-free media containing the compounds 5a, 5a,b, and 9a at various concentrations. The cells were allowed to grow in the presence of the compounds for 48 hrs. At the end of the treatment, 20 μl of CellTiter 96 Aqueous One Solution reagent was added directly into each well, and the cells were incubated at 37° C. for 2 hrs. This reagent converts to a form that absorbs light at 490 nm by living cells. Thus, absorbance at 490 nm is proportional to the number of viable cells. The 490 nm absorbance was measured on a BioRad plate reader. Control wells containing no cells were included in this assay to correct for background absorbance.
(§2) The effect of compound 9a on the viability of cancer cell lines as well as dividing and non-dividing mouse Swiss3T3 cells was studied.
(§3) In particular, the cell proliferation assay, as described in Example 15, was used to test the effect of a 48 to 72 hr exposure of these cell lines to compound 9a at various concentrations.

[2] = system: Swiss 3T3 non-dividing fibroblast; test: Cell viability (cell proliferation assay), non-dividing Swiss 3T3; assay type: cell-based, mouse
Description: as §1, §2, §3

[3] = system: HTS-tubulin (90% tubulin plus 10% microtubule associated proteins); test: Microtubule polymerization assay (turbidity at 340 nm); assay type: biochemical; conditions: absorbance at 340 nm, 30 minutes, 37° C., FIG. 3
Description: Microtubule polymerization assays were performed to determine if compounds, such as compound 9a, cause G2/M cell cycle arrest by affecting microtubule dynamics. A microtubule polymerization assay was performed that takes advantage of the observation that there is an increase in turbidity that can be measured at 340 nm as tubulin heterodimers polymerize to form microtubules. In brief, HTS-tubulin (90% tubulin plus 10% microtubule associated proteins; Cytoskeleton Inc., Denver, Colo.) was resuspended in G-PEM buffer (80 mM Pipes, pH 6.9; 2 mM MgCl2; 0.5 mM EDTA; 1 mM GTP) to 10 mg/ml. This suspension was clarified by centrifugation for 10 min. at 225,000×g. The supernatant was then diluted with G-PEM buffer to 2 mg/ml and 100 μl of this solution was added to the appropriate number of ½-area wells in a 96-well format (Corning). Each compound (10 μl of a 10× final concentration in 10% DMSO) was added to the wells in duplicate and immediately put into a pre-warmed (37° C.) Spectromax 190 plate reader. The absorbance was read at 340 nm immediately (time=0) and every minute thereafter for 30 minutes.
The tubulin mix was incubated in the presence of paclitaxel (a microtubule stabilizing agent), nocodazole (a microtubule destabilizing agent), vehicle control (DMSO), or varying concentrations of compound 9a (FIG. 3).

[4] = system: HeLa (cervical adenocarcinoma); test: Cell viability (cell proliferation assay), HeLa; assay type: cell-based; conditions: Homo sapiens, 48 to 72 hr exposure
Description: as §1, §2, §3

[5] = system: A549 (non-small cell lung carcinoma); test: Cell viability (cell proliferation assay), A549; assay type: cell-based; conditions: Homo sapiens, 48 to 72 hr exposure
Description: as §1, §2, §3

[6] = system: Swiss 3T3 dividing fibroblast; test: Cell viability (cell proliferation assay), dividing Swiss 3T3; assay type: cell-based; conditions: Mus musculus, 48 to 72 hr exposure
Description: as §1, §2, §3

[7] = system: HOP-18 (non-small cell lung carcinoma); test: Cell viability (cell proliferation assay), HOP-18; assay type: cell-based; conditions: Homo sapiens, 48 to 72 hr exposure
Description: as §1, §2, §3

[8] = system: SW480 (colorectal adenocarcinoma); test: Cell viability (cell proliferation assay), SW480; assay type: cell-based; conditions: Homo sapiens, 48 to 72 hr exposure
Description: as §1, §2, §3

HL-60 (leukemia) = test: Cell viability (cell proliferation assay), HL-60; assay type: cell-based; conditions: Homo sapiens, 48 to 72 hr exposure
Description: as §1, §2, §3

[9] = system: PC3 (prostate adenocarcinoma); test: Cell viability (cell proliferation assay), PC3; assay type: cell-based; conditions: 48 to 72 hr exposure
Description: as §1, §2, §3

HEK293 cells [10] = test: Cell cycle analysis by FACS of HEK293 cells; assay type: cell-based; conditions: for Percent of Cells in G1 / Percent of Cells in G2/M / Percent of Cells in S: treated 16 to 24 hrs
Description: Fluorescence-activated cell sorting (FACS) analysis was used to examine the cell cycle state when the cells were incubated with compounds of formula (I) as well as several control compounds, including DMSO, noscapine (a known G2/M inhibitor), and colchicine (a known G2/M inhibitor).
In particular, HEK293 cells were cultured in DMEM media (Celigro) supplemented with 10% Fetal Bovine Serum (Tissue Culture Biologicals) and 1× Penicillin/Streptomycin/Glutamine (Gibco). The cells were grown at 37° C. with 5% CO2, plated in six-well plates at 2.5×10^6 cells/well, and treated for 16 to 24 hrs with the compounds at the concentrations shown in Table 1, below. The cells were then triturated off the bottom of the wells, washed 1× with PBS, then fixed with 70% ethanol, and stored at 4° C. before staining and FACS analysis.
The DNA content of cells was determined using a FacsVantage SE flow cytometry system (Becton Dickinson, San Jose, Calif.) and a Cellular DNA Flow Cytometric Analysis Kit (Roche Applied Science, Indianapolis, Ind.). Cell cycle analysis was performed using Cylchred 1.0.2 software.

HEK293 cells [11] = test: HEK293 cell viability, CellTiter 96 Aqueous One Solution Cell Proliferation assay; assay type: cell-based; conditions: Homo sapiens, HEK293, 48 h, read-out: EC50
Description: as §1, with “The effect of various doses of compounds 5a, 5a,b, and 9a on the viability of HEK293 cells was examined using the CellTiter 96 Aqueous One Solution Cell Proliferation assay (Promega). The HEK293 cells were cultured in DMEM media (Cellgro) or phenol red-free DMEM (Gibco) supplemented with 10% Fetal Bovine Serum (Tissue Culture Biologicals) and 1× Penicillin/Streptomycin/Glutamine (Gibco). The cells were grown at 37° C. with 5% CO2. HEK293” for “HEK293”

H4 (glioma) = test: Cell viability (cell proliferation assay), H4; assay type: cell-based; conditions: 48 to 72 hr exposure
Description: as §1, §2, §3

U937 (lymphoma) = test: Cell viability (cell proliferation assay), U937; assay type: cell-based; conditions: Homo sapiens, U-937, 48 to 72 hr exposure
Description: as §1, §2, §3

[12] = system: NCl/ADR (breast adenocarcinoma); test: Cell viability (cell proliferation assay), NCl/ADR; assay type: cell-based; conditions: 48 to 72 hr exposure
Description: as §1, §2, §3

[13] = system: HCT15 (colorectal adenocarcinoma); test: Cell viability (cell proliferation assay), HCT15; assay type: cell-based; conditions: Homo sapiens, HCT-15, 48 to 72 hr exposure
Description: as §1, §2, §3

[14] = system: HT29 (colorectal adenocarcinoma); test: Cell viability (cell proliferation assay), HT29; assay type: cell-based; conditions: Homo sapiens, HT-29, 48 to 72 hr exposure
Description: as §1, §2, §3

topoisomerase II = molecular target: T1, topoisomerase II (Homo sapiens, UniProt P11388); test: Topoisomerase II assay (supercoiled pBluescript DNA, agarose gel); assay type: biochemical; conditions: in vitro, FIG. 2
T1 construct: purchased Topogen Inc
Description: (§4) Analysis of topoisomerase activity was performed in 20 μl reactions with either topoisomerase I reaction buffer (10 mM TRIS-HCl, pH 7.5; 100 mM NaCl; 1 mM 2-mercaptoethanol) or topoisomerase II reaction buffer (50 mM Tris-HCl, pH 8; 120 mM KCl; 10 mM MgCl2; 0.5 mM dithiothreitol; 0.5 mM ATP; 30 μg BSA/ml) containing 125 ng supercoiled pBluescript DNA and either 2 U topoisomerase I (Sigma-Aldrich) or topoisomerase II (Topogen Inc.). After reaction at 37° C. for 20 minutes, the reactions were terminated through the addition of sodium dodecyl sulfate to 1% w/v and heating to 65° C. for 10 minutes. Proteinase K was then added to 10 μg/ml and digestion was allowed to proceed at 37° C. for 20 minutes before electrophoresis of the DNA in 0.8% agarose gels containing 0.5 μg/ml ethidium bromide for 18 hours at 75V in 0.5×TBE buffer. DNA was then visualized using a UV-transilluminator and the image was captured using a BioRad CCD camera and gel documentation system.

topoisomerase I = molecular target: T2, topoisomerase I (Homo sapiens, UniProt P11387); test: Topoisomerase I assay (supercoiled pBluescript DNA, agarose gel); assay type: biochemical; conditions: in vitro, FIG. 2
T2 construct: purchased Sigma-Aldrich
T2 sequence (P11387 1-765): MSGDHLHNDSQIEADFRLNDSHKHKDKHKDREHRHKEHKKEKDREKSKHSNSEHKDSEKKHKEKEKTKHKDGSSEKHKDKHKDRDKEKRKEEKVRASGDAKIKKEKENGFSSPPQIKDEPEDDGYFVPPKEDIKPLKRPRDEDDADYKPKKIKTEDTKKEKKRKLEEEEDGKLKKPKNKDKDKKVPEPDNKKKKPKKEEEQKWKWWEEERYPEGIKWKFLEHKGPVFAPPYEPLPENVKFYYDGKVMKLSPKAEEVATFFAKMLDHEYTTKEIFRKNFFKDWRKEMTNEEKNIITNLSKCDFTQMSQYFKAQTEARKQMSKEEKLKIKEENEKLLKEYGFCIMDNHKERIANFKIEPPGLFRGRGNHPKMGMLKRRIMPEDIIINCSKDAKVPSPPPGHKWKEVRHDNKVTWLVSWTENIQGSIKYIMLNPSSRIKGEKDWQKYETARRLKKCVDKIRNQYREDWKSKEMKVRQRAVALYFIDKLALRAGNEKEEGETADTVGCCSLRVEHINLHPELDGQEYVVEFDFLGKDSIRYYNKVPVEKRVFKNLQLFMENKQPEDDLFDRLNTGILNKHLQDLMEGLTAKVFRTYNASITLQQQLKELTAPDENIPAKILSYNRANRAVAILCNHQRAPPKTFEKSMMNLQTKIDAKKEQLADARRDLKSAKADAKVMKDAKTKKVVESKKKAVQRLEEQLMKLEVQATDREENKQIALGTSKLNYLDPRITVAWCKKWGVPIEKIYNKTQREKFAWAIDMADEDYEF
Description: as §4, with “The ability of compounds that cause S-phase cell cycle arrest to inhibit topoisomerase I and topoisomerase II was examined. Analysis” for “Analysis”

T1 sequence (P11388 whole entry): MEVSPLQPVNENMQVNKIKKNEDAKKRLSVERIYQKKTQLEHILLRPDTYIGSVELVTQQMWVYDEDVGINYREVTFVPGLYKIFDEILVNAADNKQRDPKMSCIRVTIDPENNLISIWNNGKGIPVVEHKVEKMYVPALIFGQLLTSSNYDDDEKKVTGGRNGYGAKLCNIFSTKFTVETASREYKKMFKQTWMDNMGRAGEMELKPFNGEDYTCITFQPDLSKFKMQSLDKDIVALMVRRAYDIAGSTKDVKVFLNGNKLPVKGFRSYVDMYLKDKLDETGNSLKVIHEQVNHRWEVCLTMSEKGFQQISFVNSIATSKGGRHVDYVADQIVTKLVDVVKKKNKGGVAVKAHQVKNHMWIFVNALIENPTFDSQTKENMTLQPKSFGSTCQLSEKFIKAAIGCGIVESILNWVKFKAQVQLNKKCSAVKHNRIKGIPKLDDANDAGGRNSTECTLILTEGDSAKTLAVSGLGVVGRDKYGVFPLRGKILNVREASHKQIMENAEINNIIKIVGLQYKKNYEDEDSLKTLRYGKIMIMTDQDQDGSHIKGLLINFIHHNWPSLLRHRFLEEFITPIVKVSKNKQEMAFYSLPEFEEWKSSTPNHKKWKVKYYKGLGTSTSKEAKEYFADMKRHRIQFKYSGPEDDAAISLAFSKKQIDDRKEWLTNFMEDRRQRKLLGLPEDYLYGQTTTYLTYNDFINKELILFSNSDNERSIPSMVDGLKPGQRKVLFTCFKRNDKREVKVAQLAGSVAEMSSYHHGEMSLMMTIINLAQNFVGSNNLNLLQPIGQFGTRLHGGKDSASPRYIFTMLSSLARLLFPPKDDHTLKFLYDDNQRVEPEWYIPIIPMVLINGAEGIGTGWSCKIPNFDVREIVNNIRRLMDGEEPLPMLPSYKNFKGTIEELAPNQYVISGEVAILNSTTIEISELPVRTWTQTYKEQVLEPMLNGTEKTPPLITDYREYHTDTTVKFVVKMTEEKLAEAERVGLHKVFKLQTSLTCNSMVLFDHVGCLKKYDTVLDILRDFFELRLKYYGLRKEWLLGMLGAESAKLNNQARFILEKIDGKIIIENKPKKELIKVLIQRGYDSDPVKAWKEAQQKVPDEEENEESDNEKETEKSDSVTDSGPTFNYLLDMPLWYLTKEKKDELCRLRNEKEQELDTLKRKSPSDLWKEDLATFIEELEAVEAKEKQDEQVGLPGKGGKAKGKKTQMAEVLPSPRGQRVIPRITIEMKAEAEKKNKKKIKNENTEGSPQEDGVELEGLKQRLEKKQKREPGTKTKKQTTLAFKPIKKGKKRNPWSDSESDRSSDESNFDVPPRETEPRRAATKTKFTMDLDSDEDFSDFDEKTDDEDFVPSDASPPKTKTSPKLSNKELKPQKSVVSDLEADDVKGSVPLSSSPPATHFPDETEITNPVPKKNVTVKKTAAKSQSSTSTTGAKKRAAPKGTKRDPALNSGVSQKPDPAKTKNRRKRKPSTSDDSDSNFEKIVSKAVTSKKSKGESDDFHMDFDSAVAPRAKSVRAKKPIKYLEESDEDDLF

COc1ccc2c(c1N)C(=O)O[C@@H]2[C@H]1c2c(cc3c(c2OC)OCO3)CCN1C [Compound 9a, 7-amino-6-methoxy-3-(4-methoxy-6-methyl-5,6,7,8-tetrahydro-[1,3]dioxolo[4,5-g]isoquinolin-5-yl)-3H-isobenzofuran-1-one]
EC50 [1]: < 100 nM | EC50 ([2]; Mus musculus, Swiss 3T3 non-dividing fibroblast, 48 to 72 hr exposure): > 50000 nM | effect on viability ([2]; non-dividing Swiss 3T3 fibroblasts, even at 50 μM): no effect was observed | effect on microtubule polymerization [3]: dose-dependent decrease of microtubule polymerization | EC50 [4]: < 50 nM | EC50 [5]: < 100 nM | EC50 [6]: < 100 nM | EC50 [7]: < 100 nM | EC50 [8]: < 100 nM | EC50 (HL-60 (leukemia)): < 50 nM | EC50 [9]: < 100 nM | Percent of Cells in G1 (HEK293 cells [10]; HEK293, 0.1 μM): 1% | Percent of Cells in G2/M (HEK293 cells [10]; HEK293, 0.1 μM): 92.1% | Percent of Cells in S (HEK293 cells [10]; HEK293, 0.1 μM): 6.9% | concentration at which activity was observed (HEK293 cells [10]; HEK293, G2/M accumulation): 0.1 µM | accumulation of cells in G2/M (HEK293 cells [10]; HEK293, concentrations as in Table 1): ~90% | EC50 (HEK293 cells [11]): < 50 nM | EC50 (HEK293 cells [11]; text summary): < 1000 nM | EC50 (H4 (glioma)): < 50 nM | EC50 (U937 (lymphoma)): < 50 nM | EC50 [12]: < 50 nM | EC50 [13]: < 100 nM | EC50 [14]: < 100 nM

CC[C@@]1(O)C(=O)OCc2c1cc1n(c2=O)Cc2cc3c(CN(C)C)c(O)ccc3nc2-1 [topotecan]
inhibition of topoisomerase II activity (topoisomerase II): neither topotecan nor noscapine acts as inhibitors | concentrations at which topoisomerase I activity was inhibited (topoisomerase I): below 3 μM

COc1ccc2c(c1OC)C(=O)O[C@@H]2[C@H]1c2c(cc3c(c2OC)OCO3)CCN1C [Noscapine, noscapine, reference compound]
inhibition of topoisomerase II activity (topoisomerase II): neither topotecan nor noscapine acts as inhibitors | inhibition of topoisomerase I activity (topoisomerase I): neither etoposide nor noscapine inhibited | Percent of Cells in G1 (HEK293 cells [10]; HEK293, 50 μM): 19.2% | Percent of Cells in G2/M (HEK293 cells [10]; HEK293, 50 μM): 49.6% | Percent of Cells in S (HEK293 cells [10]; HEK293, 50 μM): 31.1% | EC50 (HEK293 cells [11]): ~10000 nM
